# Experimental data reported in ChEMBL document CHEMBL1201862, “PubChem BioAssay data set” (2004).
# The source made the active and inactive calls.
# How the values were obtained:
# [1] = molecular target: E3 ubiquitin-protein ligase Mdm2 (Homo sapiens, UniProt Q00987); test: MDM2-luc reporter signal enhancers, multi-concentration potency testing, MDM2 ubiquitin-protein ligase inhibitor program, whole-cell format, luminescence detection, 384-well microplate (AID 1394); format: functional;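 also: MDM2 E3 inhibitors raise luminescence so EC50 is for signal enhancement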
# Sequence of E3 ubiquitin-protein ligase Mdm2 (Q00987 whole entry, the tested form may be a part): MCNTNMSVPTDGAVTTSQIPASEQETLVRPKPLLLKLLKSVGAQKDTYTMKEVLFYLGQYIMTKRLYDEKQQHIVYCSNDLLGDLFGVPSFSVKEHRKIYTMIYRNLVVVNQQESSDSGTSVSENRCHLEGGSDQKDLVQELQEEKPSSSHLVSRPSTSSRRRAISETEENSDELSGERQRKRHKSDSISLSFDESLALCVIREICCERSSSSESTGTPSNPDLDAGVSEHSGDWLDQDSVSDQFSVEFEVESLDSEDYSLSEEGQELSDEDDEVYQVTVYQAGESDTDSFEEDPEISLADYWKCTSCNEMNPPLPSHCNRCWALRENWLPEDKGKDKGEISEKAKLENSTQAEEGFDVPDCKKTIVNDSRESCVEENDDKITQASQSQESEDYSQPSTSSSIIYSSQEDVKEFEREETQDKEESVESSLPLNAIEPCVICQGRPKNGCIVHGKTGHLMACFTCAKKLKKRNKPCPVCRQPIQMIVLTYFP
# [2] = molecular target: T1, Carboxy-terminal domain RNA polymerase II polypeptide A small phosphatase 1 (Homo sapiens, UniProt Q9GZU7); test: CTDSP1 inhibitors, concentration-response, biochemical, absorbance readout, ultra-high-throughput screen actives (AID 540297); format: functional
# T1 sequence (Q9GZU7 whole entry): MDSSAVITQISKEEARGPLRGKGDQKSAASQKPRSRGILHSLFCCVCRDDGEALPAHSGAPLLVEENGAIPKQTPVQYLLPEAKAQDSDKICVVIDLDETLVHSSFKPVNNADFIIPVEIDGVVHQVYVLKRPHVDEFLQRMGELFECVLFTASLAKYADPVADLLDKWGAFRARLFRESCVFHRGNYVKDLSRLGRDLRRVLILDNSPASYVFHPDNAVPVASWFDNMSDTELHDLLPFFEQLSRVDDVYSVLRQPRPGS
# [3] = molecular target: Mitogen-activated protein kinase 10 (Homo sapiens, UniProt P53779); test: Dose response biochemical screening assay for inhibitors of c-Jun N-Terminal Kinase 3 (JNK3). [Related pubchem assays: 746 ]
# Sequence of Mitogen-activated protein kinase 10 (P53779 whole entry): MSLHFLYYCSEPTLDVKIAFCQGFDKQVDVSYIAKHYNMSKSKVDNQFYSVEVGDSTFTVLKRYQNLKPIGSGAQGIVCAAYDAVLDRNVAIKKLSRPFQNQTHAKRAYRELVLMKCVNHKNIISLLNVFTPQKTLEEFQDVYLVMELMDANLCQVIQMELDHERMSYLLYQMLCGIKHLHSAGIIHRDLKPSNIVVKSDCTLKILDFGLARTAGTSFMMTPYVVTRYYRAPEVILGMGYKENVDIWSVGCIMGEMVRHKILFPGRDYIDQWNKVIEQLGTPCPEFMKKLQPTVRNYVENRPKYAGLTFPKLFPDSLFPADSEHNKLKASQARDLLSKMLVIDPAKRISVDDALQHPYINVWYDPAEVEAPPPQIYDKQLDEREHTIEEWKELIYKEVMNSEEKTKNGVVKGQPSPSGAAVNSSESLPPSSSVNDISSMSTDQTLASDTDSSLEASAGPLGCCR
# Coagulation factor XII = molecular target: T2, Coagulation factor XII (Homo sapiens, UniProt P00748); format: functional;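 also: activated factor XIIa alpha cleaving a fluorogenic AMC peptide substrate; inhibitor potency from loss of enzyme activity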
# T2 sequence (P00748 whole entry): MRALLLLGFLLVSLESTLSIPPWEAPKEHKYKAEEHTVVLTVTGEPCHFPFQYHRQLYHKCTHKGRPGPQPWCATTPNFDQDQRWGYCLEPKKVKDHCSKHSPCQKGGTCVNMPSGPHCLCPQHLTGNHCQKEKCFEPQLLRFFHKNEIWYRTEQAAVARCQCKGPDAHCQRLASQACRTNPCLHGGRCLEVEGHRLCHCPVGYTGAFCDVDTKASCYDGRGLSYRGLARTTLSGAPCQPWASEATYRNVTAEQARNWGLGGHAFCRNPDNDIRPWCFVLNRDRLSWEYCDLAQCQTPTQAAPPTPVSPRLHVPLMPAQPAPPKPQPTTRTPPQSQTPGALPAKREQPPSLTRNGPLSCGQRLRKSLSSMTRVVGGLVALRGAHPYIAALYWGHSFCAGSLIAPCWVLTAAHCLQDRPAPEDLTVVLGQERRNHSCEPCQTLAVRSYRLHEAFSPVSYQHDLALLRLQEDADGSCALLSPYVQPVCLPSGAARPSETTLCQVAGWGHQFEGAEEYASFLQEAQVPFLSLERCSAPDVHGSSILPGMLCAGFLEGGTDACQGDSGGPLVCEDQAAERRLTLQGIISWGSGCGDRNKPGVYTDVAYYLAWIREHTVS
# Nonstructural protein 1 = Nonstructural protein 1 (Influenza A virus, UniProt Q194T2); format: functional, Influenza A virus (A/California/07/2009(H1N1))
# Sequence of Nonstructural protein 1 (Q194T2 whole entry): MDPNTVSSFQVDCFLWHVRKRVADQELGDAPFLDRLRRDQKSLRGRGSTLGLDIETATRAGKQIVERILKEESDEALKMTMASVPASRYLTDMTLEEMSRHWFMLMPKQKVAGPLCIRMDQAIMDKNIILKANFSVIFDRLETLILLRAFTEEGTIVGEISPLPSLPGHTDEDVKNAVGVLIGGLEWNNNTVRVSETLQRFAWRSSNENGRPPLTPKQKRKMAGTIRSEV
# [4] = molecular target: T3, Mannose-6-phosphate isomerase (Homo sapiens, UniProt P34949); test: MPI inhibition at elevated mannose 6-phosphate – biochemical, fluorescence intensity, high mannose 6-phosphate, primary screen (AID 1220)
# T3 sequence (P34949 whole entry): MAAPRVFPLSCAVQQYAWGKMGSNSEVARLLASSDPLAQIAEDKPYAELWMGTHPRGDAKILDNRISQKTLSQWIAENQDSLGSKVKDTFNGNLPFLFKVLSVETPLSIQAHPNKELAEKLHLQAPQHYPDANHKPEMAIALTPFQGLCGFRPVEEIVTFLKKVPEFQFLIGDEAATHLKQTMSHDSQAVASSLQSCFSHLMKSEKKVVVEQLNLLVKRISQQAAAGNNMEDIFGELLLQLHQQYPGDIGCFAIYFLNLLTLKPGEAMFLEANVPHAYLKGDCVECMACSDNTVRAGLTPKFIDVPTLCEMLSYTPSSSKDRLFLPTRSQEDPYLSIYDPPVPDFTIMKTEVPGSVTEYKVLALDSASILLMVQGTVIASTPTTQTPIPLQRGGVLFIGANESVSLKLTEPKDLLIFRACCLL
# [5] = molecular target: Bifunctional protein GlmU (Mycobacterium tuberculosis, UniProt P9WMN3); test: Inhibitors of Mycobacterial Glucosamine-1-phosphate acetyl transferase (GlmU). Secondary screen.; parameters: species or system Mycobacterium tuberculosis H37Rv
# Sequence of Bifunctional protein GlmU (P9WMN3 whole entry): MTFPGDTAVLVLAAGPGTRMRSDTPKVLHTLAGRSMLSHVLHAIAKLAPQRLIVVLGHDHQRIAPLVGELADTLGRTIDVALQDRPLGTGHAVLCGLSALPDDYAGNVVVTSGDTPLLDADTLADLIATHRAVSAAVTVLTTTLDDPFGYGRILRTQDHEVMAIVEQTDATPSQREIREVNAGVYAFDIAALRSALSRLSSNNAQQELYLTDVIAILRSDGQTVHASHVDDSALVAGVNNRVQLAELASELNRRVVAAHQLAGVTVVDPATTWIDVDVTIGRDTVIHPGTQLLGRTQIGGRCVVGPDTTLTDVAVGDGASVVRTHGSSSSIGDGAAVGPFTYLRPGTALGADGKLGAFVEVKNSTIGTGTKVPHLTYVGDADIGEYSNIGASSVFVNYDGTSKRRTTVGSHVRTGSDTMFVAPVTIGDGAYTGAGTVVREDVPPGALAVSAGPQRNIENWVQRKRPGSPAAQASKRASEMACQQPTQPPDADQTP
# SUMO-activating enzyme [6] = molecular target: T4, SUMO-activating enzyme (Homo sapiens, UniProt Q9UBT2); test: blockers of SAE1/SAE2–UBC9 SUMO transfer – biochemical, HTRF, uHTS, primary screen (AID 2006); format: protein-complex assay
# T4 sequence (Q9UBE0 whole entry): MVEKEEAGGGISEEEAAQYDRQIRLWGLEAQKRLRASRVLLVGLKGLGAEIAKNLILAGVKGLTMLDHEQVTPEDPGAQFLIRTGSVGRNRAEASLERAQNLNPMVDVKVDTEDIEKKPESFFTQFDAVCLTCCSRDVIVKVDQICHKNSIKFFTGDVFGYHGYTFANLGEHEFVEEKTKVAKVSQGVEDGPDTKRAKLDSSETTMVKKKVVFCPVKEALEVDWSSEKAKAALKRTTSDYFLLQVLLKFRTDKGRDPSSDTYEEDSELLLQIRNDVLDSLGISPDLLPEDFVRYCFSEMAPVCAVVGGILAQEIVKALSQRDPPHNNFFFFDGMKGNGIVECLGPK
# T4 sequence (Q9UBT2 whole entry): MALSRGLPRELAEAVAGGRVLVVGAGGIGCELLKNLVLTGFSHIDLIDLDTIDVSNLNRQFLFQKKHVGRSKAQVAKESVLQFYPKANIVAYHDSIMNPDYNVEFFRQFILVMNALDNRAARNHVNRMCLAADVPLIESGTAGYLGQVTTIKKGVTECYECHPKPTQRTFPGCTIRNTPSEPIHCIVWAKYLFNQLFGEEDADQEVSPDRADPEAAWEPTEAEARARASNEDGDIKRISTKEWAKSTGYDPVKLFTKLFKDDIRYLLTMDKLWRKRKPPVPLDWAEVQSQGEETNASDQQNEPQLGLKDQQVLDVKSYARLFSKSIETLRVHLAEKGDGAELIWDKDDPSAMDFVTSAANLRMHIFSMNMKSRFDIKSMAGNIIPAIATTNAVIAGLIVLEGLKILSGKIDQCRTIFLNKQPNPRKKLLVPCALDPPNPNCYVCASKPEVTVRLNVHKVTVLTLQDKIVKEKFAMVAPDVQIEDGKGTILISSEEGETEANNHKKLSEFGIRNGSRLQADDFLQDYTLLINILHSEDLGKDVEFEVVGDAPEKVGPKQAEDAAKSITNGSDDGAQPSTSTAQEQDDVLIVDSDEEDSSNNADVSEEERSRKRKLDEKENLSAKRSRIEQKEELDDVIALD
# SUMO-activating enzyme [7] = molecular target: T4, SUMO-activating enzyme; test: blockers of UBC9-mediated SUMO conjugation – biochemical, AlphaScreen, SUMOylation inhibitor project, confirmation (AID 2018); format: functional
# [8] = off-target signal loss in HeLa-CEM21 co-culture – HeLa F-luc CTL cells, cherry-picked, counter-screen for HIV-1 Env fusion inhibitor project, dose response (AID 652040); format: functional, cell-based;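 also: potency for signal decrease marking cytotoxic or nonspecific inhibition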
# [9] = HIV-1 AD8 envelope cell-cell fusion blockers – cherry-pick, dose response (AID 652062); format: functional, cell-based;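 also: luciferase signal from cell-cell fusion driven by HIV-1 clade B AD8 Env; potency is for inhibitors of fusion seen as a drop in luminescence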
# [10] = viability loss in HEK293 cells – cell-based, plate reader, cherry-picked samples, cytotoxicity control, dose response (AID 743446); format: functional
# [11] = A549 cell cytotoxicity, dose response, cytotoxicity control, plate reader, cherry-pick, antagonist series (AID 743412); format: functional, cell-based
# Jurkat = test: blockers of NF-kB activation in T cells – Jurkat, luciferase reporter, luminescence, B- and T-cell, dose response (AID 489004); format: functional, cell-based; conditions: Homo sapiens;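 also: NF-kB luciferase reporter Jurkat cells stimulated with PMA plus ionomycin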
# [12] = HEK-293T viability loss, compound-treated – cell-based, uHTS hits, cytotoxicity control for B/T-cell NF-kB inhibitor project, dose response (AID 489019); format: functional;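 also: IC50 reflects cytotoxicity as loss of cell viability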
# [13] = blockers of HIV-1 envelope-mediated cell-cell fusion – cherry-pick, dose response (AID 652057); format: functional, cell-based
# [14] = blockade of melanocortin 4 receptor signaling – cell-based, plate reader, cherry pick, counter-screen for LGR2 antagonist project, dose response (AID 743444); format: functional;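 also: transfected HEK 293 cells stimulated with alpha-MSH peptide; potency of inhibitors of the alpha-MSH evoked signal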
# [15] = molecular target: T5, Heat shock factor protein 1 (Mus musculus, UniProt P38532); test: decrease of HSF1-responsive luciferase luminescence – cell-based, NIH3T3, dose retest, confirmation (AID 2382); format: functional;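 also: NIH3T3 fibroblasts with HSF1-driven luciferase reporter stressed by proteasome inhibitor MG132; luminescence from HSF1-driven luciferase expression after 8 hours of MG132 stress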
# T5 sequence (P38532 whole entry): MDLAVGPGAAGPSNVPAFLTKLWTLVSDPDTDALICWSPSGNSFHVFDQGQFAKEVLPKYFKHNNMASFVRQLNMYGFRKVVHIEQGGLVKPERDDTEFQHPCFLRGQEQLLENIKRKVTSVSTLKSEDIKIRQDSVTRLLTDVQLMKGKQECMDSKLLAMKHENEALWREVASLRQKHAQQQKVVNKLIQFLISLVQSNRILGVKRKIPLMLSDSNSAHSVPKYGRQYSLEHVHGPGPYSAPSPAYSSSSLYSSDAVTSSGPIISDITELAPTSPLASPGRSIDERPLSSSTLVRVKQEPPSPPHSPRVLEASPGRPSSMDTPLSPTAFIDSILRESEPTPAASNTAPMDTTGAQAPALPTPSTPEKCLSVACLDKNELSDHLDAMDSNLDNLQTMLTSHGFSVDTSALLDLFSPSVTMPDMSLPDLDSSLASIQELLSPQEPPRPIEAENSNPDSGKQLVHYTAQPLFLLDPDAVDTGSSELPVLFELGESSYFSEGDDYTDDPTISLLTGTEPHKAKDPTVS
# [16] = molecular target: Heat shock protein HSP 90-alpha (Homo sapiens, UniProt P07900); test: Luminescence-based dose response biochemical high throughput screening assay for inhibitors of the Heat Shock Protein 90 (HSP90). [Related pubchem assays: 1831 (Summary AID.), 1846 (Confirmation screen.), 1789 (Primary screen.)]
# Paired box protein Pax-8 = Paired box protein Pax-8 (Homo sapiens, UniProt Q06710); test: PAX8 transcriptional activity inhibition in RMG-I – RMG-I cells, luciferase, cherry-pick, dose response (AID 687027); format: functional, cell-based;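 also: luciferase reporter driven by Pax8 target thyroperoxidase promoter measured by SteadyGlo luminescence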
# Sequence of Paired box protein Pax-8 (Q06710 whole entry, the tested form may be a part): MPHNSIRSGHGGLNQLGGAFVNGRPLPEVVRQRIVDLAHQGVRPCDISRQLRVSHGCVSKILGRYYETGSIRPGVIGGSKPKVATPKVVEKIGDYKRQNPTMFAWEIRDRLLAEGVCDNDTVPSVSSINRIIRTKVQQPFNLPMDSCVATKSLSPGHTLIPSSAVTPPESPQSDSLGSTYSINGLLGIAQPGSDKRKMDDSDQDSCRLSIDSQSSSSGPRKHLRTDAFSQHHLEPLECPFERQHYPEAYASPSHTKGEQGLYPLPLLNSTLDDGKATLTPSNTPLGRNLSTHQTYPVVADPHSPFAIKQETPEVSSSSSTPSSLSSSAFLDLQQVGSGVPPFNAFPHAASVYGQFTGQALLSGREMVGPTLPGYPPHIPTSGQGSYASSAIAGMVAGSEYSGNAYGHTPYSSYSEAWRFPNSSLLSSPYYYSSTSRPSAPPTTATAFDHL
# [17] = blockers of HIV-1 ZM109 envelope-driven cell-cell fusion – HeLa effector, CEM target cells, luciferase, cherry-pick, dose response (AID 652058); format: functional, cell-based;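 also: luciferase signal from HIV-1 Env mediated cell-cell fusion of effector and target cells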
# [18] = blockers of bursicon-stimulated LGR2 cAMP reporter – cell-based, HEK293, CRE-luciferase reporter, cherry pick, set 2, dose response (AID 743343); format: functional;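 also: transfected cells were stimulated with diluted bursicon conditioned medium after compound addition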
# [19] = molecular target: T6, Tyrosine-protein phosphatase non-receptor type 7 (Homo sapiens, UniProt P35236); test: HePTP tyrosine phosphatase activity blockers – biochemical, absorbance, leukemia target, primary screen (AID 521); format: functional
# T6 sequence (P35236 whole entry): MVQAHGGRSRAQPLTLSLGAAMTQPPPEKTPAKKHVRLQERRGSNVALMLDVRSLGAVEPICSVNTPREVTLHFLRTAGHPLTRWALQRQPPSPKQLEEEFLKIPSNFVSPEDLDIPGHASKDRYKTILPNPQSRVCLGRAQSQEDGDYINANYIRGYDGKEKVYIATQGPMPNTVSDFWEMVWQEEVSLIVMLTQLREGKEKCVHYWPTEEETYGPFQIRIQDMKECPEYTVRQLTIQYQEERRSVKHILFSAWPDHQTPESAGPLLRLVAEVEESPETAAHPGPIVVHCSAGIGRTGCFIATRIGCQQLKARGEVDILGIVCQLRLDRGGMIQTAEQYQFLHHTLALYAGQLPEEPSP
structure (smiles),measurement,setting,value
O=C1CCN(Cc2ccccc2)S(=O)(=O)c2ccccc21,EC50,[1],3.06 µM (not active)
same,IC50,[2],39.3 µM (active)
NC(=O)c1c(NC(=O)C2CCCO2)sc2c1CCC2 (stereo not drawn),IC50,[3],42.5 µM (not active)
same,IC50,Coagulation factor XII,> 50 µM (inactive)
Nc1ccccc1NC1CCCCC1,IC50,Nonstructural protein 1,64.8 µM (active)
same,IC50,[4],> 50 µM (not active)
N#C/C(=C/c1ccc(-c2cc(C(=O)O)cc(C(=O)O)c2)o1)c1nc2ccccc2s1,IC50,[5],19.1 µM (active)
same,IC50,SUMO-activating enzyme [6],15.9 µM (active)
same,IC50,SUMO-activating enzyme [7],2.81 µM (active)
O=C(CN1C(=O)c2ccccc2S1(=O)=O)c1ccc2c(c1)OCCO2,AC50,[8],0.556 µM (active)
same,AC50,[9],< 0.26 µM (active)
same,AC50,[10],> 52 µM (inactive)
same,AC50,[11],22.9 µM (active)
same,IC50,Jurkat,0.17 µM (active)
same,IC50,[12],> 80 µM (inactive)
same,AC50,[13],0.339 µM (active)
same,AC50,[14],0.206 µM (active)
same,EC50,[15],0.418 µM (active)
same,IC50,[16],1.39 µM (active)
same,AC50,Paired box protein Pax-8,1.64 µM (active)
same,AC50,[17],1.08 µM (active)
same,AC50,[18],0.126 µM (active)
CC(=O)Oc1oc(-c2ccccc2)nc1/C=N/c1ccccn1,IC50,[19],> 100 µM (not active)
